For assay [1], the system named is γδ T cell. The experiment in a line: In vitro TNFα release assay, γδ T cell amplification from human PBMCs (in the presence of rhIL2). The assay is classed as cell-based. The method, then:
The in vitro biological activity of γδ T cell amplification from human PBMCs (in the presence of rhIL2) was assessed using a TNFα release assay.
Cytokine secretion and cytolytic activity can be assessed using any appropriate in vitro assay, or those provided in the examples herein. For example, cytokine secretion can be determined according to the methods described in Espinosa et al. (J. Biol. Chem., 2001, Vol. 276, Issue 21, 18337-18344), describing measurement of TNF-α release in a bioassay using TNF-α-sensitive cells. Briefly, 10^4 γδT cells/well were incubated with stimulus plus 25 units of IL2/well in 100 μl of culture medium during 24 h at 37° C. Then, 50 μl of supernatant were added to 50 μl of WEHI cells plated at 3×10^4 cells/well in culture medium plus actinomycin D (2 μg/ml) and LiCl (40 mM) and incubated for 20 h at 37° C. Viability of the TNF-α-sensitive cells and measured with a 3-(4,5-dimethylthiazol-2-yl)-2,5-diphenyltetrazolium bromide assay. 50 μl of 3-(4,5-dimethylthiazol-2-yl)-2,5-diphenyltetrazolium bromide (Sigma; 2.5 mg/ml in phosphate-buffered saline) per well were added, and after 4 h of incubation at 37° C., 50 μl of solubilization buffer (20% SDS, 66% dimethyl formamide, pH 4.7) were added, and absorbance (570 nm) was measured. Levels of TNF-α release were then calculated from a standard curve obtained using purified human rTNF-α (PeproTech, Inc., Rocky Hill, N.J.). Interferon-γ released by activated T cells was measured by a sandwich enzyme-linked immunosorbent assay. 5×10^4 γδT cells/well were incubated with stimulus plus 25 units of IL2/well in 100 μl of culture medium during 24 h at 37° C. Then, 50 μl of supernatant were harvested for enzyme-linked immunosorbent assay using mouse monoclonal antibodies (BIOSOURCE, Camarillo, Calif.). […]
BrHPP and HDMAPP bioactivity were compared using in vitro and in vivo assays. The in vitro biological activity of γδ T cell amplification from human PBMCs (in the presence of rhIL2) was assessed using a TNFα release assay.

The subject of assay [2] is γδ T cell. The experiment in a line: γδ T cell amplification from human PBMCs, counting γδ T cell using flow cytometry (given as in vivo EC50). The assay is classed as cell-based. The note with it: for EC50: γδ T cell amplification from human PBMCs, flow cytometry count. The method, then:
The biological activity of γδ T cell amplification from human PBMCs was assessed by counting γδ T cell using flow cytometry.
In vitro proliferation assays and in vitro TNFα release assay are performed essentially as described in Example 3.

The test system of assay [3] is γδ T cells. The experiment in a line: In vivo γδ T cell amplification after successive i.v. HDMAPP/IL2 injections in cynomolgus monkeys. On the set-up: species or system cynomolgus monkeys (M. fascicularis). The note with it: day 5. Here is the method:
Eight purpose bred healthy male cynomolgus monkeys (M. fascicularis). At the beginning of the study, body weights ranged from 3.5 to 4 kg and ages from 37 to 41 months.
Animals were anaesthetised with intra-muscular injection of 6 mg/kg Zoletil™ 100 (Tiletamine-Zolazepam, Virbac, Carros, France) before any perfusion.
HDMAPP was administered i.v. to male cynomolgus monkeys by 30-minute perfusions in a total volume of 50 ml with Ringer Lactate as vehicle. […]
The animals were co-treated subcutaneously with 0.6M IU IL2 in sterile water per day for 5 days.
Blood was drawn pre-dose and at day 4, 5, 7, 11 and 14 after HDMAPP perfusion for flow cytometry analysis of blood cellular populations of interest.
Peripheral γδ lymphocytes were analysed by flow cytometry on total monkey blood, after triple staining with anti-Vgamma9FITC, anti-CD3PE and anti-CD69PC5 antibodies (Vgamma9-FITC: 7B6 clone, produced, purified and FITC-coupled at Innate Pharma; CD3-PE: SP34 clone, BD Biosciences Pharmingen, Le Pont de Claix, France; CD69PC5: FN50 clone, Immunotech-Beckman-Coulter, Marseilles, France).
Briefly, 50 μl monkey blood was incubated 15 min at RT with 10 μl anti-gamma9-FITC, 5 μl anti-CD3-PE and 5 μl anti-CD69PC5 antibodies. Antibodies were washed with 3 ml 1×PBS, centrifuged for 4 min at 1300 rpm at RT and supernatant was discarded. Red cells were lysed with the OptiLyse C reagent (Immunotech-Beckman-Coulter, Marseilles, France) according to the manufacturer's instructions. At the final step, stained white blood cells were recovered by centrifugation and resuspended in 300 μl 1×PBS+0.2% PFA. Immediately before analysis, 50 μl calibrated Flow Count™ Fluorospheres (Immunotech-Beckman-Coulter, Marseilles, France) were added to the cells for absolute number counting of the populations of interest.

The test system of assay [4] is Vγ9/Vδ2 T cells. The note with it: reported; cited from earlier work.
In assay [5] the test system is γδ T cells. The note with it: Wilhelm et al., 2003; cited from earlier work.

The values that follow come from patent publication US20100254940A1, “Compositions and Methods for Regulating an Immune Response in a Subject” (INNATE PHARMA, S.A., priority 2002, published 2010).

`C/C(=C\COP(=O)(O)OP(=O)(O)O)CO` [HDMAPP, (E)-4-hydroxy-3-methyl-2-butenyl pyrophosphate]: the difference in potency is approximately 50 fold in assay [1] (HDMAPP vs BrHPP, in vitro EC50) and approximately 2 log in assay [2] (HDMAPP vs BrHPP). Besides, the EC50 in assay [1] (T-cell, TNFα release assay, human PBMCs, rhIL2) is approximately 0.6 nM; in assay [2] it was approximately 0.005 nM; in assay [4], approximately 0.1 nM. Also, the “γδ cells among CD3+” value is on record as “approx. 60%” in assay [3] (first of 4 successive injections, 5 weeks apart, 2.6 mg/kg); approximately 40% in assay [3] (fourth of 4 successive injections); approximately 55% in assay [3] (second of 4 successive injections); “approx. 60%” in assay [3] (third of 4 successive injections).
As to `O=P(O)(O)C(O)(Cn1ccnc1)P(=O)(O)O` [Zoledronate®, reference compound], the EC50 in assay [2] is approximately 1000 nM.
As for `NCCC(O)(P(=O)(O)O)P(=O)(O)O` [pamidronate], the “increase in γδ T cell count” value in assay [5] is recorded as not above 2 fold.
